Tests used:
Type in all cases: in vivo
Abutilon [1] = test: Pre-emergence test/greenhouse; settings: greenhouse, 250 g of ai/ha, rated after three weeks
Method: (§1) • Solvent: 5 parts by weight of acetone • Emulsifier: 1 part by weight of alkylaryl polyglycol ether
(§2) To produce a suitable preparation of active compound, 1 part by weight of active compound is mixed with the stated amount of solvent, the stated amount of emulsifier is added and the concentrate is diluted with water to the desired concentration.
(§3) Seeds of the test plants are sown in normal soil. After about 24 hours, the soil is sprayed with the preparation of active compound such that the particular amount of active compound desired is applied per unit area. The concentration of the spray liquor is chosen so that the particular amount of active compound desired is applied in 1000 liters of water per hectare.
(§4) After three weeks, the degree of damage to the plants is rated in % damage in comparison to the development of the untreated control.
(§5) The figure denote: • 0%=no effect (like untreated control) • 100%=total destruction

Alopecurus [2] = test: Pre-emergence test/greenhouse; settings: greenhouse, rated after three weeks
Method: as §1, §2, §3, §4, §5

Amaranthus [3] = test: Pre-emergence test/greenhouse; settings: greenhouse, rated after three weeks
Method: as §1, §2, §3, §4, §5

Cyperus = test: Pre-emergence test/greenhouse; settings: greenhouse, rated after three weeks
Method: as §1, §2, §3, §4, §5

Galium = test: Pre-emergence test/greenhouse; settings: greenhouse, 250 g of ai/ha, rated after three weeks
Method: as §1, §2, §3, §4, §5

Setaria [4] = test: Pre-emergence test/greenhouse; settings: greenhouse, rated after three weeks
Method: as §1, §2, §3, §4, §5

Sinapis [5] = test: Pre-emergence test/greenhouse; settings: greenhouse, 250 g of ai/ha, rated after three weeks
Method: as §1, §2, §3, §4, §5

Xanthium [6] = test: Pre-emergence test/greenhouse; settings: greenhouse, 250 g of ai/ha, rated after three weeks
Method: as §1, §2, §3, §4, §5

weeds [7] = test: Pre-emergence test, activity against weeds
Method: as §1, §2, §3, §4, §5

Amaranthus [8] = test: Post-emergence test/greenhouse; settings: greenhouse, rated after three weeks
Method: as §1
(§6) To produce a suitable preparation of active compound, one part by weight of active compound is mixed with the stated amount of solvent, the stated amount of emulsifier is added and the concentrate is diluted with water to the desired concentration.
(§7) Test plants which have a height of 5-15 cm are sprayed with the preparation of active compound such that the particular amounts of active compound desired are applied per unit area. The concentration of the spray liquor is chosen so that the particular amounts of active compound desired are applied in 1000 l of water/ha.
as §4
(§8) The figures denote: • 0%=no effect (like untreated control) • 100%=total destruction

Barley = test: Post-emergence test/greenhouse; settings: greenhouse, 2 g of ai/ha, rated after three weeks
Method: as §1, §6, §7, §4, §8

Chenopodium [9] = test: Post-emergence test/greenhouse; settings: greenhouse, 2 g of ai/ha, rated after three weeks
Method: as §1, §6, §7, §4, §8

Echinochloa [10] = test: Post-emergence test/greenhouse; settings: greenhouse, 2 g of ai/ha, rated after three weeks
Method: as §1, §6, §7, §4, §8

Stellaria [11] = test: Post-emergence test/greenhouse; settings: greenhouse, rated after three weeks
Method: as §1, §6, §7, §4, §8

Veronica [12] = test: Post-emergence test/greenhouse; settings: greenhouse, 2 g of ai/ha, rated after three weeks
Method: as §1, §6, §7, §4, §8

Viola [13] = test: Post-emergence test/greenhouse; settings: greenhouse, 2 g of ai/ha, rated after three weeks
Method: as §1, §6, §7, §4, §8

Wheat [14] = test: Post-emergence test/greenhouse; settings: greenhouse, rated after three weeks
Method: as §1, §6, §7, §4, §8

weeds [15] = test: Post-emergence test, activity against weeds
Method: as §1, §6, §7, §4, §8

Chenopodium [16] = test: Pre-emergence test/greenhouse; settings: greenhouse, 60 g of ai/ha, rated after three weeks
Method: as §1, §2, §3, §4, §5

Digitaria = test: Pre-emergence test/greenhouse; settings: greenhouse, 60 g of ai/ha, rated after three weeks
Method: as §1, §2, §3, §4, §5

Maize [17] = test: Pre-emergence test/greenhouse; settings: greenhouse, 60 g of ai/ha, rated after three weeks
Method: as §1, §2, §3, §4, §5

Matricaria [18] = test: Pre-emergence test/greenhouse; settings: greenhouse, 60 g of ai/ha, rated after three weeks
Method: as §1, §2, §3, §4, §5

Solanum [19] = test: Pre-emergence test/greenhouse; settings: greenhouse, rated after three weeks
Method: as §1, §2, §3, §4, §5

Abutilon [20] = test: Post-emergence test/greenhouse; settings: greenhouse, rated after three weeks
Method: as §1, §6, §7, §4, §8

Alopecurus [21] = test: Post-emergence test/greenhouse; settings: greenhouse, 250 g of ai/ha, rated after three weeks
Method: as §1, §6, §7, §4, §8

Avenafatua = test: Post-emergence test/greenhouse; settings: greenhouse, 250 g of ai/ha, rated after three weeks
Method: as §1, §6, §7, §4, §8

Setaria [22] = test: Post-emergence test/greenhouse; settings: greenhouse, rated after three weeks
Method: as §1, §6, §7, §4, §8

Sinapis [23] = test: Post-emergence test/greenhouse; settings: greenhouse, 250 g of ai/ha, rated after three weeks
Method: as §1, §6, §7, §4, §8

Xanthium [24] = test: Post-emergence test/greenhouse; settings: greenhouse, 250 g of ai/ha, rated after three weeks
Method: as §1, §6, §7, §4, §8

Maize [25] = test: Post-emergence test/greenhouse; settings: greenhouse, 15 g of ai/ha, rated after three weeks
Method: as §1, §6, §7, §4, §8

Solanum [26] = test: Post-emergence test/greenhouse; settings: greenhouse, rated after three weeks
Method: as §1, §6, §7, §4, §8

Bromus = test: Pre-emergence test/greenhouse; settings: greenhouse, rated after three weeks
Method: as §1, §2, §3, §4, §5

Echinochloa [27] = test: Pre-emergence test/greenhouse; settings: greenhouse, rated after three weeks
Method: as §1, §2, §3, §4, §5

Stellaria [28] = test: Pre-emergence test/greenhouse; settings: greenhouse, rated after three weeks
Method: as §1, §2, §3, §4, §5

Veronica [29] = test: Pre-emergence test/greenhouse; settings: greenhouse, rated after three weeks
Method: as §1, §2, §3, §4, §5

Viola [30] = test: Pre-emergence test/greenhouse; settings: greenhouse, rated after three weeks
Method: as §1, §2, §3, §4, §5

Wheat [31] = test: Pre-emergence test/greenhouse; settings: greenhouse, 125 g of ai/ha, rated after three weeks
Method: as §1, §2, §3, §4, §5

Ipomoea = test: Post-emergence test/greenhouse; settings: greenhouse, 8 g of ai/ha, rated after three weeks
Method: as §1, §6, §7, §4, §8

Matricaria [32] = test: Post-emergence test/greenhouse; settings: greenhouse, 8 g of ai/ha, rated after three weeks
Method: as §1, §6, §7, §4, §8

Cotton = test: Pre-emergence test/greenhouse; settings: greenhouse, 60 g of ai/ha, rated after three weeks
Method: as §1, §2, §3, §4, §5

Row | Structure (SMILES) | degree of damage to the plants, Abutilon (Abutilon [1]) [%] | degree of damage to the plants, Alopecurus (Alopecurus [2]; 250 g of ai/ha) [%] | degree of damage to the plants, Amaranthus (Amaranthus [3]; 250 g of ai/ha) [%] | degree of damage to the plants, Cyperus (Cyperus; 250 g of ai/ha) [%] | degree of damage to the plants, Galium (Galium) [%] | degree of damage to the plants, Setaria (Setaria [4]; 250 g of ai/ha) [%] | degree of damage to the plants, Sinapis (Sinapis [5]) [%] | degree of damage to the plants, Xanthium (Xanthium [6]) [%] | activity against weeds (weeds [7]) | activity against weeds (weeds [15]) | degree of damage to the plants, Chenopodium (Chenopodium [16]) [%] | degree of damage to the plants, Solanum (Solanum [19]; 60 g of ai/ha) [%] | degree of damage to the plants, Abutilon (Abutilon [20]; 250 g of ai/ha) [%] | degree of damage to the plants, Alopecurus (Alopecurus [21]) [%] | degree of damage to the plants, Amaranthus (Amaranthus [8]; 250 g of ai/ha) [%] | degree of damage to the plants, Avenafatua (Avenafatua) [%] | degree of damage to the plants, Setaria (Setaria [22]; 250 g of ai/ha) [%] | degree of damage to the plants, Sinapis (Sinapis [23]) [%] | degree of damage to the plants, Xanthium (Xanthium [24]) [%] | further results
1 | COC(=O)c1csc(C)c1S(=O)(=O)NC(=O)n1nc(OC)n(C2CC2)c1=O [Example 5] | 95 | 99 | 100 | 100 | 95 | 100 | 95 | 99 | very strong activity | very strong activity |  |  |  |  |  |  |  |  |  | degree of damage to the plants, Amaranthus (Amaranthus [8]; 2 g of ai/ha): 99%; degree of damage to the plants, Barley (Barley): 10%; degree of damage to the plants, Chenopodium (Chenopodium [9]): 95%; degree of damage to the plants, Echinochloa (Echinochloa [10]): 95%; degree of damage to the plants, Stellaria (Stellaria [11]; 2 g of ai/ha): 100%; degree of damage to the plants, Veronica (Veronica [12]): 90%; degree of damage to the plants, Viola (Viola [13]): 90%; degree of damage to the plants, Wheat (Wheat [14]; 2 g of ai/ha): 10%
2 | CCc1nn(C(=O)NS(=O)(=O)c2c(C(=O)OC)csc2C)c(=O)n1C [Example 11] |  |  |  |  |  |  |  |  | very strong activity | very strong activity | 100 | 100 | 100 | 100 | 100 | 100 | 100 | 100 | 100 | degree of damage to the plants, Alopecurus (Alopecurus [2]; 60 g of ai/ha): 100%; degree of damage to the plants, Amaranthus (Amaranthus [3]; 60 g of ai/ha): 100%; degree of damage to the plants, Digitaria (Digitaria): 100%; degree of damage to the plants, Maize (Maize [17]): 10%; degree of damage to the plants, Matricaria (Matricaria [18]): 100%; degree of damage to the plants, Setaria (Setaria [4]; 60 g of ai/ha): 100%
3 | COC(=O)c1csc(C)c1S(=O)(=O)NC(=O)n1nc(C)n(C)c1=O [Example 10] | 95 | 95 | 100 | 95 | 95 | 100 | 100 | 90 | very strong activity | very strong activity |  |  |  |  |  |  |  |  |  | degree of damage to the plants, Abutilon (Abutilon [20]; 15 g of ai/ha): 90%; degree of damage to the plants, Amaranthus (Amaranthus [8]; 15 g of ai/ha): 90%; degree of damage to the plants, Maize (Maize [25]): 10%; degree of damage to the plants, Setaria (Setaria [22]; 15 g of ai/ha): 95%; degree of damage to the plants, Solanum (Solanum [26]; 15 g of ai/ha): 90%; degree of damage to the plants, Stellaria (Stellaria [11]; 15 g of ai/ha): 95%; degree of damage to the plants, Wheat (Wheat [14]; 15 g of ai/ha): 10%
4 | COC(=O)c1csc(C)c1S(=O)(=O)NC(=O)n1nc(OC(C)C)n(C)c1=O [Example 4] |  |  |  |  |  |  |  |  | very strong activity | very strong activity |  |  |  |  |  |  |  |  |  | degree of damage to the plants, Bromus (Bromus; 125 g of ai/ha): 100%; degree of damage to the plants, Cyperus (Cyperus; 125 g of ai/ha): 100%; degree of damage to the plants, Echinochloa (Echinochloa [27]; 125 g of ai/ha): 100%; degree of damage to the plants, Solanum (Solanum [19]; 125 g of ai/ha): 100%; degree of damage to the plants, Stellaria (Stellaria [28]; 125 g of ai/ha): 100%; degree of damage to the plants, Veronica (Veronica [29]; 125 g of ai/ha): 100%; degree of damage to the plants, Viola (Viola [30]; 125 g of ai/ha): 100%; degree of damage to the plants, Wheat (Wheat [31]): 20%; degree of damage to the plants, Abutilon (Abutilon [20]; 8 g of ai/ha): 95%; degree of damage to the plants, Amaranthus (Amaranthus [8]; 8 g of ai/ha): 95%; degree of damage to the plants, Ipomoea (Ipomoea): 95%; degree of damage to the plants, Matricaria (Matricaria [32]): 90%; degree of damage to the plants, Solanum (Solanum [26]; 8 g of ai/ha): 95%; degree of damage to the plants, Stellaria (Stellaria [11]; 8 g of ai/ha): 95%; degree of damage to the plants, Wheat (Wheat [14]; 8 g of ai/ha): 10%
5 | COC(=O)c1csc(C)c1S(=O)(=O)NC(=O)n1nc(OC(C)C)n(C2CC2)c1=O [Example 8] |  |  |  |  |  |  |  |  | very strong activity | very strong activity | 90 | 90 | 100 | 100 | 100 | 100 | 100 | 95 | 100 | degree of damage to the plants, Bromus (Bromus; 60 g of ai/ha): 90%; degree of damage to the plants, Cotton (Cotton): 0%; degree of damage to the plants, Echinochloa (Echinochloa [27]; 60 g of ai/ha): 90%; degree of damage to the plants, Stellaria (Stellaria [28]; 60 g of ai/ha): 95%; degree of damage to the plants, Veronica (Veronica [29]; 60 g of ai/ha): 95%; degree of damage to the plants, Viola (Viola [30]; 60 g of ai/ha): 100%

From patent publication US7642221B2, “Substituted thien-3-yl-sulphonylamino(thio)carbonyl-triazoline(ethi)ones” (Bayer Aktiengesellschaft, priority 1999, dated 2010)
